Data on one compound can be found in patent publication US20190062684A1, “Microfluidic System for Reproducing Functional Units of Tissues and Organs In Vitro” (NORTIS, INC., priority 2012, published 2019).

The data set has as its system vascular-cell tube (engineered from primary human microvascular endothelial cells).

Each structure is given as a SMILES string.

Take `O=C(O)c1ccccc1-c1c2cc(F)c(=O)cc-2oc2cc(O)c(F)cc12` [Oregon Green]: the “average permeability through the vascular-cell tube wall” value came to 250 nm/s.
